Read-outs that look alike come from different tables or passages of the source.
Assays:
[1] = cited from earlier work
[2] = cited from earlier work; remark: listed apart in the source
[3] = test system: bacterial spores (Geobacillus stearothermophilu); test: fifth sterilization test, small container (approximately 0.3 L), BI in sterilization bag, CFU assay, survival curves, D value; assay type: cell-based
Description: Subsequently, the following description will discuss, with reference to FIGS. 6 and 7, a result of a sterilization test using the sterilization device 1 that generates peroxynitric acid gas by a nebulizer method. The capacity of the sterilization container 21 was as large as 90 L in the sterilization tests in FIGS. 2 to 5, whereas the capacity of the sterilization container 21 was as small as approximately 0.3 L in the sterilization test in FIGS. 6 and 7. The peroxide solution was used in an amount of approximately 3 mL per minute in the peroxynitric acid gas generation section 10. The peroxynitric acid gas in the sterilization container 21 is discharged outside through the air outlet 24 instead of being recirculated into the second container 12.
(§1) FIG. 6 is a graph showing a result of a fifth sterilization test using a small container. The BI is one in which 10^5 CFU bacterial spores (Geobacillus stearothermophilu) are supported on a stainless steel disk and the stainless steel disk is in the sterilization bag 23 made of glassine paper. […]
FIG. 7 is a table showing microbicidal activity determined from each of the survival curves S10, S100, S200, S600a, and S600b that are shown in FIG. 6. […] A D value [s] is a time which is calculated from a survival curve and at which the number of living microorganisms reaches 1/10. […]

[4] = half-time of peroxynitric acid solution versus temperature; assay type: physicochemical; conditions: pH 2.9
Protocol: FIG. 10 is a graph showing half-time of a peroxynitric acid solution. As shown in the graph, the peroxynitric acid solution that has a lower temperature (which may be ambient temperature) has a longer half-time. For example, the peroxynitric acid solution that has pH of 2.9 has a half-time of 132 minutes at 2° C. of the temperature of the peroxynitric acid solution, has a half-time of 26 minutes at 10° C. of the temperature of the peroxynitric acid solution, has a half-time of 7.8 minutes at 20° C. of the temperature of the peroxynitric acid solution, has a half-time of 2 minutes at 30° C. of the temperature of the peroxynitric acid solution, and has a half-time of 0.6 minutes at 40° C. of the temperature of the peroxynitric acid solution. The half-time of the peroxynitric acid solution thus depends on temperature.

[5] = test system: bacterial spores (Geobacillus stearothermophilu); test: first and second sterilization tests, large container (90 L), nebulizer method, BI in sterilization bag, CFU assay; assay type: cell-based; conditions: 90 L container, 10^5 CFU spores in glassine paper bag
Protocol: (§2) The following description will discuss, with reference to FIGS. 2 to 5, results of sterilization tests each using the sterilization device 1 that generates peroxynitric acid gas by a nebulizer method. Here, the sterilization tests were carried out with use of the sterilization device 1 that includes (i) the peroxynitric acid gas generation section 10, which is as illustrated in FIG. 1 and which generates the peroxynitric acid gas by a nebulizer method and (ii) the sterilization treatment section 20 in which the sterilization container 21 having a capacity of 90 L is used. The peroxynitric acid solution was used in an amount of approximately 15 mL per minute in the peroxynitric acid gas generation section 10. The peroxynitric acid mist and the peroxynitric acid gas in the sterilization container 21 were configured to be recirculated into the second container 12 instead of being discharged outside through the air outlet 24.
FIG. 2 is a graph showing a result of a first sterilization test using a large container. FIG. 3 is a graph showing a result of a second sterilization test using a large container. […]

[6] = test system: bacterial spores (Geobacillus stearothermophilu); test: third and fourth sterilization tests, large container (90 L), BI in sterilization bag, on-off test (turbidity of culture solution); assay type: cell-based; conditions: 90 L container, 10^6 CFU spores in glassine paper bag
Protocol: as §2
as §1, with “4” for “6”, “table” for “graph”, “third” for “fifth”, “large container. FIG. 5 is a table showing a result of a fourth sterilization test using a large” for “small”, “10^6” for “10^5”

[7] = 1 atmospheric pressure, cited from earlier work
[8] = test system: spore solution (Bacillus subtilis) on pig skin; test: sixth sterilization test, contaminated pig skin model, CFU assay; assay type: cell-based; conditions: peroxynitric acid solution 100 mM, approximately 0.3 L container, Bacillus subtilis spores
Description: Subsequently, the following description will discuss, with reference to FIG. 8, a result of a sterilization test using the sterilization device 1 that generates peroxynitric acid gas by a nebulizer method. In the sterilization test shown in FIG. 8, with the aim of application to biological disinfection, a contaminated pig skin model was sterilized by the nebulizer method.
FIG. 8 is a graph showing a result of a sixth sterilization test using a contaminated pig skin model. A 10^6 CFU spore solution (Bacillus subtilis) was applied to pig skin that had been shaved, cleaned, and subjected to sterilization treatment in advance, and the pig skin was dried so as to be a contaminated model. Such a contaminated pig skin model was regarded as the sterilization target 22 and housed in the sterilization container 21 having a capacity of approximately 0.3 L. In so doing, a surface of the contaminated pig skin model was made perpendicular to a direction in which a gas containing the peroxynitric acid gas and the peroxynitric acid mist flowed. A molar concentration of the peroxynitric acid solution to be placed in the second container 12 was set to 100 mM. After the sterilization test, a stomachere was used to collect bacteria on not only a front surface but also a back surface of the contaminated pig skin model, and the CFU assay was carried out.

[9] = peroxynitric acid solution 10 mM
[10] = peroxynitric acid solution 600 mM

Q: With `O=[N+]([O-])O` [Nitric acid, nitric acid] as the compound, how does the vapor pressure ([1]; 20° C.) read?
A: The vapor pressure was 6.4 kPa.

Q: What about the pKa [2] of the same compound?
A: Its pKa is “approximately −1.4”.

Q: With `O=P(O)(O)O` [phosphoric acid] as the compound, how does the vapor pressure ([1]; 20° C.) read?
A: The vapor pressure was 4 Pa.

Q: With “peroxynitric acid [peroxynitric acid solution]” as the compound, how does the “microbicidal activity from survival curves” value ([3]; 10, 100, 200 and 600 mM, approximately 0.3 L container, 10^5 CFU spores, CFU assay) read?
A: Its value is “higher molar concentration achieves higher microbicidal activity”.

Q: And the “microbicidal activity 1/D (reciprocal of D value)” value ([3]; calculated from survival curves S10, S100, S200, S600a, S600b)?
A: Its value is “proportional to the molar concentration”.

Q: What about the half-time ([4]; 2° C.) of the same compound?
A: Its half-time is 132 min.

Q: And the half-time ([4]; 10° C.)?
A: The half-time was 26 min.

Q: And the half-time ([4]; 20° C.)?
A: The half-time was 7.8 min.

Q: And the half-time ([4]; 30° C.)?
A: Its half-time is 2 min.

Q: What about the half-time ([4]; 40° C.) of the same compound?
A: Its half-time is 0.6 min.

Q: And the “time in which the BI was sterilized (living microorganisms equal to or lower than detection limit)” value [5, 9]?
A: The value was 3 min.

Q: And the “time in which the BI was sterilized (living microorganisms equal to or lower than detection limit)” value [5, 10]?
A: The value was 1 min.

Q: And the “time in which the BI was sterilized (on-off test)” value [6, 9]?
A: Its value is 10 min.

Q: And the “time in which the BI was sterilized (on-off test)” value [6, 10]?
A: The value was 1 min.

Q: What about the half-time ([7]; 4.55° C. (277.7 K)) of the same compound?
A: The half-time was 97 s.

Q: What about the half-time ([7]; 24.85° C. (298 K)) of the same compound?
A: The half-time was 12 s.

Q: What about the “time in which the contaminated pig skin model was sterilized” value [8] of the same compound?
A: Its value is 3 min.

Q: With `O=S(=O)(O)O` [Sulfuric acid, sulfuric acid] as the compound, how does the vapor pressure ([1]; 25° C.) read?
A: The vapor pressure was 0.0067 Pa.

From patent publication US20250090705A1, “STERILIZATION METHOD AND STERILIZATION DEVICE” (OSAKA UNIVERSITY, priority 2021, published 2025)
